The NIST ThermoML archive (doi:10.1021/je800930v)

Test: xn = mol fraction of the nth substance listed
Settings: 101 kPa, Liquid

O=C(O)C1CC1 [cyclopropanecarboxylic acid] + CO
Settings | mass density, 298.15 K [kg/m3] | mass density, 308.15 K [kg/m3] | mass density, 318.15 K [kg/m3] | mass density, 328.15 K [kg/m3] | viscosity, 298.15 K [mPa·s] | viscosity, 308.15 K [mPa·s] | viscosity, 318.15 K [mPa·s] | viscosity, 328.15 K [mPa·s]
x1 = 0.1 | 846.5 | 837.02 | 827.45 | 817.74 | 0.773 | 0.651 | 0.572 | 0.499
x1 = 0.2 | 895.02 | 885.53 | 875.84 | 866.23 | 1.052 | 0.886 | 0.753 | 0.645
x1 = 0.3 | 935.16 | 925.62 | 916 | 906.25 | 1.392 | 1.151 | 0.965 | 0.816
x1 = 0.3999 | 968.42 | 958.83 | 949.18 | 939.42 | 1.778 | 1.451 | 1.199 | 1
x1 = 0.4994 | 996.21 | 986.56 | 976.86 | 967.07 | 2.189 | 1.765 | 1.44 | 1.191
x1 = 0.5989 | 1019.49 | 1009.79 | 1000.06 | 990.24 | 2.557 | 2.029 | 1.641 | 1.349
x1 = 0.7001 | 1039.41 | 1029.65 | 1019.87 | 1010.04 | 2.887 | 2.227 | 1.825 | 1.494
x1 = 0.8001 | 1056.17 | 1046.35 | 1036.53 | 1026.65 | 3.139 | 2.449 | 1.963 | 1.604
x1 = 0.9 | 1070.57 | 1060.68 | 1050.81 | 1040.92 | 3.298 | 2.553 | 2.047 | 1.678
x1 = 1 | 1082.92 | 1072.97 | 1063.04 | 1053.12 | 3.306 | 2.603 | 2.102 | 1.739

CCO [ethanol] + O=C(O)C1CC1
x2 = 0
Settings | mass density [kg/m3] | viscosity [mPa·s]
298.15 K | 785.44 | 1.097
308.15 K | 776.78 | 0.908
318.15 K | 767.94 | 0.756
328.15 K | 758.92 | 0.634

CCCO [propan-1-ol] + O=C(O)C1CC1
x2 = 0
Settings | mass density [kg/m3] | viscosity [mPa·s]
298.15 K | 799.6 | 1.955
308.15 K | 791.49 | 1.538
318.15 K | 783.22 | 1.224
328.15 K | 774.73 | 0.986
338.15 K | 765.98 | 0.801
